For 6 molecules, IC50 results are on record in patent US20250009830A1 (priority 2021, published 2025).

Some test systems named below: SARS-CoV-2 Alpha; SARS-CoV-2 Beta; SARS-CoV-2 Gamma; SARS-CoV-2 Delta; SARS-CoV-2 Omicron.
What all share (experiment): microbe, parasite or virus in culture
Holding throughout (format): cell-based
Holding throughout (details): read-out: IC50 of the main compounds of EC 3.2

Test [1] relates to SARS-CoV-2 Wuhan type (SARS-CoV-2PR-1).
[2] abbreviates: Severe acute respiratory syndrome coronavirus 2, Calu-3, calculated from EC 3.2 IC50 and HPLC analysis (Table 4).
[3] abbreviates: Calu-3, calculated from EC 3.2 IC50 and HPLC analysis (Table 4).

One may read the IC50 as the midpoint of a concentration-inhibition curve.

Like-named read-outs stand apart in the source and are kept apart here.

On to `O=C(/C=C/c1ccc(O)c(O)c1)O[C@@H]1C[C@](O)(C(=O)O)C[C@@H](O)[C@H]1O` [Chlorogenic acid], for which the IC50 was 6.6 µM in test [1] (setting [2]); 27 µM with SARS-CoV-2 Alpha (setting [2]); 20 µM in the test with SARS-CoV-2 Beta (setting [2]); 20 µM in the test with SARS-CoV-2 Gamma (setting [2]); 13 µM with SARS-CoV-2 Delta (setting [2]); 13 µM with SARS-CoV-2 Omicron (setting [2]).
As to `OC[C@H]1O[C@@H](Oc2cc3c(O)cc(O)cc3[o+]c2-c2ccc(O)c(O)c2)[C@H](O)[C@@H](O)[C@@H]1O` [Cyanidin-3-glucoside], the half-inhibitory concentration (IC50) in test [1] (setting [3]) was 41 µM; with SARS-CoV-2 Alpha (setting [3]) it was 165 µM; in the test on SARS-CoV-2 Beta (setting [3]), 123 µM; in the test on SARS-CoV-2 Gamma (setting [3]), 123 µM; in the test with SARS-CoV-2 Delta (setting [3]) it was 82 µM; in the test on SARS-CoV-2 Omicron (setting [3]), 82 µM.
On to `OC[C@H]1O[C@@H](Oc2cc(O)cc3[o+]c(-c4ccc(O)c(O)c4)c(O[C@@H]4O[C@H](CO)[C@@H](O)[C@H](O)[C@H]4O[C@@H]4OC[C@@H](O)[C@H](O)[C@H]4O)cc23)[C@H](O)[C@@H](O)[C@@H]1O` [Cyanidin-3-sambubioside-5-glucoside], for which the IC50 in test [1] (setting [3]) was 6 µM; with SARS-CoV-2 Alpha (setting [3]) it was 24 µM; in the test on SARS-CoV-2 Beta (setting [3]), 18 µM; in the test with SARS-CoV-2 Gamma (setting [3]) it was 18 µM; in the test on SARS-CoV-2 Delta (setting [3]), 12 µM; in the test on SARS-CoV-2 Omicron (setting [3]) it was 12 µM.
Turning to `OC[C@H]1O[C@@H](Oc2cc3c(O)cc(O)cc3[o+]c2-c2ccc(O)c(O)c2)[C@H](O[C@@H]2OC[C@@H](O)[C@H](O)[C@H]2O)[C@@H](O)[C@@H]1O` [Cyanidin-3-sambubioside], the IC50 in test [1] (setting [3]) is 35 µM; in the test on SARS-CoV-2 Alpha (setting [3]), 142 µM; in the test on SARS-CoV-2 Beta (setting [3]) it was 107 µM; in the test with SARS-CoV-2 Gamma (setting [3]), 107 µM; in the test on SARS-CoV-2 Delta (setting [3]), 71 µM; in the test with SARS-CoV-2 Omicron (setting [3]), 71 µM.
As for `O=c1c(O[C@@H]2O[C@H](CO)[C@@H](O)[C@H](O)[C@H]2O)c(-c2ccc(O)c(O)c2)oc2cc(O)cc(O)c12` [Isoquercitrin], the IC50 in test [1] (setting [2]) is 1.3 µM; with SARS-CoV-2 Alpha (setting [2]) it was 5.4 µM; in the test on SARS-CoV-2 Beta (setting [2]) it was 4 µM; in the test with SARS-CoV-2 Gamma (setting [2]), 4 µM; in the test on SARS-CoV-2 Delta (setting [2]), 2.7 µM; with SARS-CoV-2 Omicron (setting [2]), 2.7 µM.
`C[C@@H]1O[C@@H](OC[C@H]2O[C@@H](Oc3c(-c4ccc(O)c(O)c4)oc4cc(O)cc(O)c4c3=O)[C@H](O)[C@@H](O)[C@@H]2O)[C@H](O)[C@H](O)[C@H]1O` [Rutin]: the IC50 in test [1] (setting [2]) was 17 µM; in the test on SARS-CoV-2 Alpha (setting [2]), 68 µM; in the test with SARS-CoV-2 Beta (setting [2]), 51 µM; in the test on SARS-CoV-2 Gamma (setting [2]) it was 51 µM; with SARS-CoV-2 Delta (setting [2]) it was 34 µM; with SARS-CoV-2 Omicron (setting [2]) it was 34 µM.
